These results are taken from ChEMBL document CHEMBL5441456, “ASAP - SARS-CoV-2 nsp3 macrodomain dose response” (2024).

Values joined by “and” are separate entries in the source; they are usually repeats but may differ in a detail not shown here. Identical values can stand only once.

The target in this assay is Replicase polyprotein 1ab (Severe acute respiratory syndrome coronavirus 2, UniProt P0DTD1). In words: Functional biochemical assay to identify treatments for viral infectious disease that targets SARS-COV-2 nsp3 macrodomain, whereby the mechanism of action displaces an ADP-Ribose modified peptide from the binding site. Utilizing a time-resolved fluorescence method to measure binding by reading the emitted fluorescence intensity in two wavelengths.
Turning to `CCNC(=O)c1cc2c(N[C@@H](c3ccc4c(c3)S(=O)(=O)CCO4)C(C)C)ncnc2[nH]1`, the half-maximal inhibitory concentration (IC50) was 33 nM and 64 nM and 52 nM and 90 nM and 50 nM and 73 nM.

As to `Cc1nn(C)cc1-c1cc2c(N[C@@H](c3ccc4c(c3)S(=O)(=O)CCC4)C(C)C)ncnc2[nH]1`, the IC50 is 36800 nM and 10800 nM.

As to `CC(C)[C@H](Nc1ncnc2[nH]c(-c3cnn(CC(N)=O)c3)cc12)c1ccc2c(c1)S(=O)(=O)CCC2`, the IC50 was 21 nM and 16 nM and 31 nM (2×) and 15 nM and 23 nM (2×) and 25 nM.

For `CC(C)[C@@H](Nc1ncnc2[nH]c(-c3cnn(C)c3)cc12)c1ccc2c(c1)S(=O)(=O)NCC2`, the IC50 is 71 nM and 57 nM.

For the compound `CC(C)[C@H](Nc1ncnc2[nH]c(-c3cnn(C)c3C#N)cc12)c1ccc2c(c1)S(=O)(=O)CCC2`, the IC50 is 18 nM and 15 nM and 13 nM.

`CC(C)(C)[C@H](Nc1ncnc2[nH]c(-c3cnn(CC(N)=O)c3)cc12)c1ccc2c(c1)OCCO2`: the IC50 was 122 nM.

For the compound `CNCc1cc(-c2cc3c(N[C@H](c4ccc5c(c4)S(=O)(=O)CCC5)C(C)C)ncnc3[nH]2)co1`, the 50% inhibitory concentration (IC50) was 2240 nM and 1910 nM and 971 nM.

For `CC(C)[C@H](Nc1ncnc2[nH]c(-c3cnn(C)c3C#N)cc12)c1ccc2c(n1)NC(=O)CO2`, the 50% inhibitory concentration (IC50) was 101 nM and 95 nM.

On to `CNCc1cc(-c2cc3c(N[C@@H](c4ccc5c(c4)S(=O)(=O)NCC5)C(C)C)ncnc3[nH]2)co1`, for which the half-inhibitory concentration (IC50) was 65 nM and 70 nM (2×) and 108 nM.

For `CC(C)[C@@H](Nc1ncnc2[nH]ccc12)c1ccc2c(c1)S(=O)(=O)CCO2`, the IC50 turned out to be 181 nM.

Consider `CCNC(=O)c1cc2c(N[C@@H](c3ccc4c(c3)S(=O)(=O)NCC4)C(C)C)ncnc2[nH]1`, for which the IC50 is 124 nM and 117 nM and 95 nM and 197 nM.

`CC(C)[C@H](Nc1ncnc2[nH]c(-c3cnn(C)c3)cc12)c1ccc2c(c1)S(=O)(=O)CCC2` came in with an IC50 of 9140 nM.

For the compound `CC(C)[C@@H](Nc1ncnc2[nH]c(-c3ccc4nnn(C)c4c3)cc12)c1ccc2c(c1)S(=O)(=O)CCC2`, the half-inhibitory concentration (IC50) is 100 nM and 85 nM.

Turning to `CC(C)[C@@H](Nc1ncnc2[nH]c(-c3ccc4cncn4c3)cc12)c1ccc2c(c1)S(=O)(=O)CCC2`, the IC50 is 123 nM and 95 nM.

On to `CC(C)[C@@H](Nc1ncnc2[nH]c(-c3cncc(S(C)(=O)=O)c3)cc12)c1ccc2c(c1)S(=O)(=O)CCC2`, for which the half-maximal inhibitory concentration (IC50) is 39 nM and 79 nM and 57 nM and 143 nM.

Consider `CC(C)[C@@H](Nc1c(N)cnc2[nH]ccc12)c1ccc2c(c1)S(=O)(=O)CCC2`, for which the IC50 is greater than 99500 nM.

`CNc1nccc(N[C@H](c2ccc3c(c2)S(=O)(=O)CCC3)C(C)C)n1` came in with an IC50 greater than 99500 nM.

`CC(C)[C@H](Nc1ncnc2[nH]cnc12)c1ccc2c(c1)S(=O)(=O)CCC2` came in with an IC50 of 743 nM. That is a sub-micromolar value.

Take `CC(C)[C@@H](Nc1ncnc2[nH]ccc12)c1ccc2c(c1)S(=O)(=O)CO2`: the IC50 was 3620 nM and 2350 nM.

Consider `CCNC(=O)c1cc2c(N[C@@H](c3ccc4ncn(C)c(=O)c4c3)C(C)C)ncnc2[nH]1`, for which the half-inhibitory concentration (IC50) is 409 nM and 455 nM.

`CC(C)[C@H](Nc1ccnc2[nH]ccc12)c1ccc2c(c1)S(=O)(=O)CCC2` displayed an IC50 greater than 99500 nM.

For `CC(C)[C@@H](Nc1ncnc2[nH]c(C(=O)NCC3(CO)CC3)cc12)c1ccc2c(c1)OCCO2`, the IC50 was 802 nM and 2140 nM.

Turning to `CC(C)[C@@H](Nc1ccnc2[nH]ccc12)c1ccc2c(c1)S(=O)(=O)CCC2`, the IC50 was greater than 99500 nM.

Regarding `CCNC(=O)c1cc2c(N[C@@H](c3ccc4c(n3)NC(=O)CO4)C(C)C)ncnc2[nH]1`, the IC50 was 1060 nM and 574 nM.

`CNCc1cc(-c2cc3c(N[C@@H](c4ccc5c(c4)NC(=O)CO5)C(C)C)ncnc3[nH]2)co1`: the IC50 is 313 nM and 187 nM.

On to `CC(C)[C@@H](Nc1cccc2nc[nH]c(=O)c12)c1ccc2c(c1)S(=O)(=O)CCC2`, for which the concentration for half-maximal inhibition (IC50) is greater than 99500 nM.

`CCNC(=O)c1cc2c(N[C@@H](C(=O)NC3CCOCC3)C(C)C)ncnc2[nH]1` displayed an IC50 greater than 99500 nM.

For `CCNC(=O)c1cc2c(N[C@@H](c3cccc(-c4ccc(OC)nc4)c3)C(C)C)ncnc2[nH]1`, the IC50 was 20900 nM and 17700 nM.

For `CCNC(=O)c1cc2c(N[C@@H](c3nc4ccccc4o3)C(C)C)ncnc2[nH]1`, the IC50 was 20500 nM and 17600 nM.

`CC(C)(C)[C@H](Nc1ncnc2[nH]c(-c3cnn(CC(N)=O)c3)cc12)c1ccc2c(n1)OCCO2`: the IC50 was 14100 nM and 10700 nM.

Turning to `CCNC(=O)c1cc2c(N[C@@H](c3cc4c(cc3Cl)OCO4)C(C)C)ncnc2[nH]1`, the IC50 was 6220 nM and 4920 nM.

Turning to `CNc1nccc(N[C@@H](c2ccc3c(c2)S(=O)(=O)CCC3)C(C)C)n1`, the IC50 is greater than 99500 nM.

For `CC(C)[C@@H](Nc1ncnc2[nH]ccc12)c1ccc2c(c1)S(=O)(=O)NCC2`, the half-inhibitory concentration (IC50) was 1270 nM and 967 nM.

On to `COc1c(Cl)ncnc1N[C@@H](c1ccc2c(c1)S(=O)(=O)CCC2)C(C)C`, for which the IC50 is greater than 99500 nM.

In turn, `CCNC(=O)c1cc2c(N[C@@H](CCc3cccc(NS(C)(=O)=O)c3)C(C)C)ncnc2[nH]1` showed a concentration for half-maximal inhibition (IC50) greater than 99500 nM.

Turning to `CC(C)[C@H](Nc1ncnc2[nH]c(-c3cnn(CC(N)=O)c3)cc12)c1ccc2c(n1)OCCO2`, the IC50 was found to be 11600 nM. That is a double-digit micromolar value.

`CC(C)[C@H](Nc1ncnc2[nH]c(C(=O)N[C@H]3CCN(C)C3)cc12)c1ccc2c(c1)S(=O)(=O)CCC2` displayed an IC50 of 3150 nM.

On to `COC(=O)c1cc2c(N[C@@H](c3ccc4c(c3)CCN4)C(C)C)ncnc2[nH]1`, for which the concentration for half-maximal inhibition (IC50) is 28800 nM and 37600 nM and 28400 nM.

With `CC(C)[C@H](Nc1ncnc2[nH]cc(C(=O)NC3CC3)c12)c1ccc2c(c1)S(=O)(=O)CCC2`, the concentration for half-maximal inhibition (IC50) was 3900 nM and 6460 nM and 4280 nM.

On to `CCNC(=O)c1cc2c(N[C@@H](c3ccc4c(c3)S(=O)(=O)CCC4)C3CC3)ncnc2[nH]1`, for which the IC50 is 395 nM and 261 nM.

`CCNC(=O)c1cc2c(N[C@@H](c3ccc4c(c3)CCN4C(=O)C3CC3)C(C)C)ncnc2[nH]1` returned an IC50 of 24600 nM. That is a double-digit micromolar value.

For the compound `CC(C)[C@@H](Nc1ncnc2[nH]ccc12)c1ccc2c(c1)S(=O)(=O)N(C)CC2`, the IC50 was 5760 nM and 17000 nM.

Compound `CCNC(=O)c1cc2c(N[C@@H](c3cccnc3OCC(F)(F)F)C(C)C)ncnc2[nH]1` gave a 50% inhibitory concentration (IC50) greater than 99500 nM.

For the compound `CNC(=O)Cn1cc(-c2cc3c(N[C@H](c4ccc5c(c4)OCCO5)C(C)C)ncnc3[nH]2)cn1`, the half-inhibitory concentration (IC50) was 213 nM and 224 nM.

In the case of `CC(C)[C@H](Nc1ncnc2[nH]c(C(=O)N[C@@H]3CCN(C)C3)cc12)c1ccc2c(c1)S(=O)(=O)CCC2`, the IC50 was 3160 nM and 2860 nM and 3790 nM and 1620 nM.

Consider `COc1ccc([C@@H](NC(=O)c2ncnc3[nH]ccc23)C(C)(C)c2nnn[nH]2)cc1`, for which the IC50 was 1690 nM and 3910 nM.

Take `CC(C)[C@H](Nc1ncnc2[nH]c(-c3cnn(C)c3C#N)cc12)c1ccc2c(c1)OCCO2`: the IC50 is 238 nM and 901 nM.

Regarding `CC(C)[C@@H](Nc1ncnc2[nH]c(C3=CCS(=O)(=O)C3)cc12)c1ccc2c(c1)S(=O)(=O)CCC2`, the IC50 is 107 nM and 171 nM and 117 nM.

Consider `Cn1ncc(-c2cc3c(N[C@H](c4ccc5c(n4)OCCO5)C(C)(C)C)ncnc3[nH]2)c1C#N`, for which the IC50 is 4960 nM and 2330 nM and 3080 nM and 2420 nM and 10800 nM.

For the compound `CC(C)[C@@H](c1ccc2c(c1)S(=O)(=O)CCC2)n1c(=O)[nH]c2c(N)ccnc21`, the half-maximal inhibitory concentration (IC50) is greater than 99500 nM.

Take `CCNC(=O)c1cc2c(N[C@@H](CC(=O)Nc3cnn(C(C)C)c3)C(C)C)ncnc2[nH]1`: the concentration for half-maximal inhibition (IC50) is 27700 nM and 23500 nM.

With `CCNC(=O)c1cc2c(N[C@H](c3ccc4c(c3)S(=O)(=O)CCC4)C(C)C)ncnc2[nH]1`, the IC50 worked out at 1280 nM.

Regarding `CC(C)[C@@H](Nc1ncnc2[nH]ccc12)c1ccc2c(c1)SCCO2`, the IC50 was 1870 nM and 1940 nM.

For the compound `CCNC(=O)c1cc2c(N[C@@H](c3cnc(NC(C)=O)s3)C(C)C)ncnc2[nH]1`, the IC50 is 4350 nM and 5380 nM and 4140 nM.

For the compound `CNC(=O)c1cc2c(N[C@H](c3ccc4c(c3)NC(=O)CO4)C(C)C)ncnc2[nH]1`, the IC50 is 5360 nM and 961 nM and 1340 nM and 1080 nM.

Take `CC(C)[C@@H](Nc1ncnc2[nH]ccc12)c1ccc2c(c1)[S+]([O-])CCO2` (stereo partly specified): the IC50 was 604 nM and 628 nM.
